# Literature values in PubChem BioAssay AID1259409 (Chemical Carcinogenesis Research Information System (CCRIS), 2018).
# Tested on: rodent chemically induced tumor inhibition, incidence and multiplicity
# Experiment: CCRIS tumor inhibitor studies
smiles,measurement,setting,value
Cc1[nH]cnc1CSCCN=C(NC#N)N(C)N=O,"tumour outcome (control, treated, inhibition, significance)","Carcinogen: 7,12-DIMETHYLBENZ[A]ANTHRACENE, 57-97-6, Dose [Inhibitor]: 1 G/L IN DRINKING WATER AD LIBITUM BEGINNING 1 WK POST PROMOTER DOSE FOR DURATION OF STUDY (STUDY DURATION: 52 WK), Route [Inhibitor]: ORAL, Species: MOUSE, Strain/Sex: SENCAR/FEMALE, Target Tissue: Type of Lesion: SKIN: CARCINOMA, Dose [Carcinogen]: 120 UG IN 0.2 ML ACETONE ONCE, Promoter: 12-O-TETRADECANOYLPHORBOL-13-ACETATE, 16561-29-8","24/30 (80%), 18/25 (72%), 10%, not calculated"
same,"tumour outcome (control, treated, inhibition, significance)","Carcinogen: 7,12-DIMETHYLBENZ[A]ANTHRACENE, 57-97-6, Dose [Inhibitor]: 1 G/L IN DRINKING WATER AD LIBITUM BEGINNING 1 WK POST PROMOTER DOSE FOR DURATION OF STUDY (STUDY DURATION: 52 WK), Route [Inhibitor]: ORAL, Species: MOUSE, Strain/Sex: SENCAR/FEMALE, Target Tissue: Type of Lesion: SKIN: KERATOACANTHOMA, Dose [Carcinogen]: 120 UG IN 0.2 ML ACETONE ONCE, Promoter: 12-O-TETRADECANOYLPHORBOL-13-ACETATE, 16561-29-8","16/30 (53%), 8/25 (32%), 40%, p<0.05"
same,"tumour outcome (control, treated, inhibition, significance)","Carcinogen: 7,12-DIMETHYLBENZ[A]ANTHRACENE, 57-97-6, Dose [Inhibitor]: 1 MG/WK BEGINNING 1 WK POST FIRST PROMOTER DOSE FOR DURATION OF STUDY (STUDY DURATION: 52 WK), Route [Inhibitor]: DERMAL, Species: MOUSE, Strain/Sex: SENCAR/FEMALE, Target Tissue: Type of Lesion: SKIN: CARCINOMA, Dose [Carcinogen]: 120 UG IN 0.2 ML ACETONE ONCE, Promoter: 12-O-TETRADECANOYLPHORBOL-13-ACETATE, 16561-29-8","24/30 (80%), 23/30 (77%), 4%, not calculated"
same,"tumour outcome (control, treated, inhibition, significance)","Carcinogen: 7,12-DIMETHYLBENZ[A]ANTHRACENE, 57-97-6, Dose [Inhibitor]: 1 MG/WK BEGINNING 1 WK POST FIRST PROMOTER DOSE FOR DURATION OF STUDY (STUDY DURATION: 52 WK), Route [Inhibitor]: DERMAL, Species: MOUSE, Strain/Sex: SENCAR/FEMALE, Target Tissue: Type of Lesion: SKIN: KERATOACANTHOMA, Dose [Carcinogen]: 120 UG IN 0.2 ML ACETONE ONCE, Promoter: 12-O-TETRADECANOYLPHORBOL-13-ACETATE, 16561-29-8","16/30 (53%), 15/30 (50%), 6%, not calculated"
same,"tumour outcome (control, treated, inhibition, significance)","Carcinogen: 7,12-DIMETHYLBENZ[A]ANTHRACENE, 57-97-6, Dose [Inhibitor]: 1130 PPM IN DRINKING WATER BEGINNING 1 WK POST LAST CARCINOGEN DOSE (STUDY DURATION: 14 MO), Route [Inhibitor]: ORAL, Species: MOUSE, Strain/Sex: B6D2F1/FEMALE, Target Tissue: Type of Lesion: LUNG: TUMOR, Dose [Carcinogen]: 1 MG IN OLIVE OIL 1/WK FOR 4 WK, Promoter: NONE USED","11/27 (41%), 13/23 (56%), -37%, not calculated"
same,"tumour outcome (control, treated, inhibition, significance)","Carcinogen: 7,12-DIMETHYLBENZ[A]ANTHRACENE, 57-97-6, Dose [Inhibitor]: 1130 PPM IN DRINKING WATER BEGINNING 1 WK POST LAST CARCINOGEN DOSE (STUDY DURATION: 14 MO), Route [Inhibitor]: ORAL, Species: MOUSE, Strain/Sex: B6D2F1/FEMALE, Target Tissue: Type of Lesion: LYMPHOID TISSUE: NEOPLASMS, Dose [Carcinogen]: 1 MG IN OLIVE OIL 1/WK FOR 4 WK, Promoter: NONE USE","12/29 (41%), 12/28 (43%), -4%, not calculated"
same,"tumour outcome (control, treated, inhibition, significance)","Carcinogen: 7,12-DIMETHYLBENZ[A]ANTHRACENE, 57-97-6, Dose [Inhibitor]: 1130 PPM IN DRINKING WATER BEGINNING 1 WK POST LAST CARCINOGEN DOSE (STUDY DURATION: 14 MO), Route [Inhibitor]: ORAL, Species: MOUSE, Strain/Sex: B6D2F1/FEMALE, Target Tissue: Type of Lesion: MAMMARY GLAND: TUMOR, Dose [Carcinogen]: 1 MG IN OLIVE OIL 1/WK FOR 4 WK, Promoter: NONE USED","7/29 (24%), 7/28 (25%), -4%, not calculated"
same,"tumour outcome (control, treated, inhibition, significance)","Carcinogen: URETHANE, 51-79-6, Dose [Inhibitor]: 1000 PPM IN DRINKING WATER BEGINNING 10 WK POST LAST CARCINOGEN DOSE (STUDY DURATION: 14 MO), Route [Inhibitor]: ORAL, Species: MOUSE, Strain/Sex: BALB/MALE, Target Tissue: Type of Lesion: LUNG: TUMOR, Dose [Carcinogen]: 1 G/KG 1/WK FOR 2 WK, Promoter: NONE USED","20/20 (100%), 17/17 (100%), 0%, not calculated"
same,"tumour outcome (control, treated, inhibition, significance)","Carcinogen: URETHANE, 51-79-6, Dose [Inhibitor]: 1800 PPM IN DRINKING WATER BEGINNING 10 WK POST LAST CARCINOGEN DOSE (STUDY DURATION: 14 MO), Route [Inhibitor]: ORAL, Species: MOUSE, Strain/Sex: BALB/MALE, Target Tissue: Type of Lesion: LUNG: TUMOR, Dose [Carcinogen]: 1 G/KG 1/WK FOR 2 WK, Promoter: NONE USED","20/20 (100%), 17/17 (100%), 0%, not calculated"
CCCCCCCCCCCCCCCCCC(=O)O,"tumour outcome (control, treated, inhibition, significance)","Carcinogen: BENZO[A]PYRENE, 50-32-8, Dose [Inhibitor]: 4 MG IN 0.2 ML ACETONE 3/WK ADMINISTERED SIMULTANEOUSLY WITH CARCINOGEN FOR DURATION OF STUDY (STUDY DURATION: 440 D), Route [Inhibitor]: DERMAL, Species: MOUSE, Strain/Sex: ICR/FEMALE, Target Tissue: Type of Lesion: SKIN: PAPILLOMA, Dose [Carcinogen]: 5 UG IN 0.2 ML ACETONE THAT ALSO CONTAINED AGENT 3/WK, Promoter: NONE USED","16/50 (32%), 25/50 (50%), -56%, not calculated"
same,"tumour outcome (control, treated, inhibition, significance)","Carcinogen: BENZO[A]PYRENE, 50-32-8, Dose [Inhibitor]: 4 MG IN 0.2 ML ACETONE 3/WK ADMINISTERED SIMULTANEOUSLY WITH CARCINOGEN FOR DURATION OF STUDY (STUDY DURATION: 440 D), Route [Inhibitor]: DERMAL, Species: MOUSE, Strain/Sex: ICR/FEMALE, Target Tissue: Type of Lesion: SKIN: SQUAMOUS CARCINOMA, Dose [Carcinogen]: 5 UG IN 0.2 ML ACETONE THAT ALSO CONTAINED AGENT 3/WK, Promoter: NONE USED","12/50 (24%), 7/50 (14%), 42%, not calculated"
CCCCC[C@H](O)/C=C/[C@@H]1[C@@H](C/C=C\CCCC(=O)O)[C@@H](O)C[C@H]1O,"tumour outcome (control, treated, inhibition, significance)","Carcinogen: ETHYL METHANESULFONATE, 62-50-0, Dose [Inhibitor]: 0, 1 MG/KG IN SESAME OIL 2/WK FOR 8 WK ADMINISTERED CONCOMITANTLY WITH CARCINOGEN TREATMENT (STUDY DURATION: 44 WK), Route [Inhibitor]: INTRAMUSCULAR, Species: RAT, Strain/Sex: WISTAR/FEMALE, Target Tissue: Type of Lesion: MAMMARY GLAND: CARCINOMA, Dose [Carcinogen]: 0.001 MOLAR SOLUTION IN TAP WATER FOR 12 WK, Promoter: NONE USED","100%, 61%, 39%, p<0.01"
same,"tumour outcome (control, treated, inhibition, significance)","Carcinogen: ETHYL METHANESULFONATE, 62-50-0, Dose [Inhibitor]: 0, 1 MG/KG IN SESAME OIL 2/WK FOR 8 WK BEGINNING POST CARCINOGEN TREATMENT (STUDY DURATION: 44 WK), Route [Inhibitor]: INTRAMUSCULAR, Species: RAT, Strain/Sex: WISTAR/FEMALE, Target Tissue: Type of Lesion: MAMMARY GLAND: CARCINOMA, Dose [Carcinogen]: 0.001 MOLAR SOLUTION IN TAP WATER FOR 12 WK, Promoter: NONE USED","100%, 88%, 12%, not significant"
CCCCCCCCCCCCCCCCCCCCCC(O)CC(O)CCCCC (stereo unspecified),"tumour outcome (control, treated, inhibition, significance)","Carcinogen: 7,12-DIMETHYLBENZ[A]ANTHRACENE, 57-97-6, Dose [Inhibitor]: 0, 2 UMOL APPLIED 30 MIN PRIOR TO EACH PROMOTER DOSE 2/WK FOR 20 WK BEGINNING 7 D POST CARCINOGEN DOSE (STUDY DURATION:, Route [Inhibitor]: DERMAL, Species: MOUSE, Strain/Sex: ICR/FEMALE, Target Tissue: Type of Lesion: SKIN: PAPILLOMA, Dose [Carcinogen]: 50 UG IN 100 µL ACETONE ONCE, Promoter: 12-O-TETRADECANOLYPHORBOL-13-ACETATE, 16561-29-8","93%, 20%, 78%, not significant"
Cc1cc(O)cc(=O)o1,"tumour outcome (control, treated, inhibition, significance)","Carcinogen: BENZO[A]PYRENE, 50-32-8, Dose [Inhibitor]: 0.034 MMOL/G IN DIET FOR 5 WK BEGINNING 1 WK PRIOR TO FIRST CARCINOGEN DOSE AND CONTINUING FOR 3 D POST LAST CARCINOGEN, Route [Inhibitor]: ORAL, Species: MOUSE, Strain/Sex: ICR/FEMALE, Target Tissue: Type of Lesion: FORESTOMACH: TUMOR, Dose [Carcinogen]: 1 MG IN 0.2 ML CORN OIL 2/WK FOR 4 WK STARTING, Promoter: NONE USED","94%, 85%, 10%, not significant"
CC(C#Cc1ccc(Oc2ccc(F)cc2)o1)N(O)C(N)=O (stereo unspecified),"tumour outcome (control, treated, inhibition, significance)","Carcinogen: 4-(METHYLNITROSAMINO)-1-(3-PYRIDYL)-1-BUTANONE, 64091-91-4, Dose [Inhibitor]: 0, 74 MG/KG DIET FOR DURATION OF STUDY BEGINNING 2 WK PRIOR TO CARCINOGEN TREATMENT (STUDY DURATION: 25 WK), Route [Inhibitor]: ORAL, Species: MOUSE, Strain/Sex: STRAIN-A/FEMALE, Target Tissue: Type of Lesion: LUNG: TUMOR, Dose [Carcinogen]: 9.1 MG/MOUSE IN DRINKING WATER FOR 7 WK, Promoter: NONE USED","29/29 (100%), 20/25 (80%), 20%, p<0.001"
